{"source": "paper PMC8145938", "about": "“Triphenilphosphonium Analogs of Chloramphenicol as Dual-Acting Antimicrobial and Antiproliferating Agents” (Antibiotics, 2021)", "assay_type_in_all_cases": "cell-based", "key": {"[1]": {"tested_on": "Escherichia coli C600recA naI", "assay": "MIC determination, CHL resistant E. coli strains", "details": "C600RECANAI", "from_the_text": "(§1) Standard laboratory strains of Bacillus subtilis subs. subtilis Cohn 1872, stains BR151, and 168, Staphylococcus aureus subsp. aureus Rosenbach 1884 strains JCM 2151 and entry MC#144 (from the Microorganisms Collection of the Moscow State University), Listeria monocytogenes Pirie 1940, Mycobacterium smegmatis Lehmann and Neumann 1899 (MC#377), and Escherichia coli Castellani and Chalmers 1919, strain JW5503 (with the deletion of tolC gene), which are resistant to the chloramphenicol strains, J53rif, C600rif/pIB55-1, C600rif/pIP162-1, and C600recA naI, were used.\n(§2) The MICs for CAM-Cn-TPP and Cn-TPP were determined by Mueller-Hinton broth microdilution, as recommended by CLSI in the Methods for Dilution Antimicrobial Susceptibility Tests for Bacteria that Grow Aerobically, Approved Standard, 9th ed., CLSI document M07-A9, using in-house-prepared panels. The compounds were diluted in a 96-well microtiter plate to final concentrations ranging from 0.5 to 360 μM in a 250-µL aliquot of the bacterial suspension, followed by incubation at 37 °C or 30 °C for 18 h. […] The bacterial growth was observed visually alongside OD measurements. The experiments were carried out in triplicate."}, "[2]": {"tested_on": "Escherichia coli C600rif/pIB55-1", "assay": "MIC determination, CHL resistant E. coli strains", "from_the_text": "as §1, §2"}, "[3]": {"tested_on": "Escherichia coli C600rif/pIP162-1", "assay": "MIC determination, CHL resistant E. coli strains", "from_the_text": "as §1, §2"}, "[4]": {"tested_on": "Escherichia coli J53rif", "assay": "MIC determination, CHL resistant E. coli strains", "from_the_text": "as §1, §2"}, "[5]": {"tested_on": "normal human fibroblasts", "assay": "cell viability of normal cells", "details": "submicromolar concentrations, preliminary results", "method": "We also compared the effects of the obtained compounds on the suppression of normal cell growth.\nThe survival assay was performed essentially as described earlier. In short, cells were seeded into a 96-well plate, followed by treatment with increasing concentrations of the corresponding CAM-TPP derivatives for 3 days. 3-(4,5-dimethylthiazol-2-yl)-2,5-diphenyltetrazolium bromide (0.5 mg/mL MTT; Sigma-Aldrich) dissolved in media was added to each well. Following incubation for 2 h, the supernatant was carefully removed from the wells, and 100 µL of a DMSO:ethanol mix (1:1) was added to each well, followed by shaking for 10 min. The absorbance was measured at 570 nm in Bio Spec 1601, Shimadzu spectrometer. The OD570 of the DMSO solution in each well was considered to be proportional to the number of cells. The OD570 of the control (treatment without supplement) was considered to be 100%. The results were expressed as the means ± SEM. The data were analyzed using the GraphPad Prism 7 PRIZM computer software under the license of the Statistical Department (Vall’ d Hebron Hospital, Barcelona, Spain)."}}, "data": [{"compound": "O=C(CCCCCCCCCC[P+](c1ccccc1)(c1ccccc1)c1ccccc1)N[C@H](CO)[C@H](O)c1ccc([N+](=O)[O-])cc1", "note": "[CAM-C10-TPP, (N-{[(1R,2R)-1,3-dihydroxy-1-(4-nitrophenyl)propan-2-yl]amino}-11-oxoundecyl)(triphenyl)phosphonium bromide]", "values": [{"measurement": "MIC", "setting": "[1]", "result": 107, "unit": "µM"}, {"measurement": "MIC", "setting": "[2]", "result": 90, "unit": "µM"}, {"measurement": "MIC", "setting": "[3]", "result": "> 199", "unit": "µM"}, {"measurement": "MIC", "setting": "[4]", "result": 110, "unit": "µM"}, {"measurement": "effect on normal cell growth compared with cancer cells", "setting": "[5]", "result": "less affected by submicromolar concentrations of CAM-TPP derivatives than cancer cells"}]}, {"compound": "O=C(N[C@H](CO)[C@H](O)c1ccc([N+](=O)[O-])cc1)C(Cl)Cl", "note": "[CHL, chloramphenicol]", "values": [{"measurement": "MIC", "setting": "[1]", "result": "> 396", "unit": "µM"}, {"measurement": "MIC", "setting": "[2]", "result": "> 396", "unit": "µM"}, {"measurement": "MIC", "setting": "[3]", "result": "> 396", "unit": "µM"}, {"measurement": "MIC", "setting": "[4]", "result": "> 396", "unit": "µM"}]}]}
